Laboratory results: patent publication US20260183295A1, “METHODS AND COMPOSITIONS FOR TREATING CANCER” (Onconova Therapeutics, Inc., priority 2022, published 2026)

How the values were obtained:
T-47D = assay: MTT cell viability, 48 hours; type: cell-based; conditions: Homo sapiens, T47D, T-47D (HR+ HER2−), read-out: 48 h-cell viability decrease
Description: (§1) A panel of […] breast cancer cell lines: T-47D, BT-474, MDA-MB-453, MDA-MB-468, HCC-1937, Hs578T, and MDA-MB-231, was treated for 48 hours with 5 μM Compound 1 and the cell viability was measured using the MTT assay. TABLE 6 summarizes the cell lines, and the change in viability after 48 hours of treatment with Compound 1.

MDA-MB-231 [1] = assay: MTT cell viability, 48 hours; type: cell-based; conditions: Homo sapiens, MDA-MB-231 (TNBC), read-out: 48 h-cell viability decrease
Description: as §1

MDA-MB-453 = assay: MTT cell viability, 48 hours; type: cell-based; conditions: Homo sapiens, MDA-MB-453 (TNBC), read-out: 48 h-cell viability decrease
Description: as §1

BT-474 = assay: MTT cell viability, 48 hours; type: cell-based; conditions: Homo sapiens, BT-474 (HR+ HER2+), read-out: 48 h-cell viability decrease
Description: as §1

Hs578T = assay: MTT cell viability, 48 hours; type: cell-based; conditions: Homo sapiens, Hs-578T, Hs578T (TNBC), read-out: 48 h-cell viability decrease
Description: as §1

HCC-1937 [2] = assay: MTT cell viability, 48 hours; type: cell-based; conditions: Homo sapiens, HCC1937, 48 h, HCC-1937 (TNBC), read-out: 48 h-cell viability decrease
Description: as §1

Akt pSer473 = assay: Western blot, MDA-MB-231 cells, 24 hours; type: cell-based; conditions: 2.5, 5, 10 μM, versus Comparator 1, 2 and 4
MDA-MB-231 [3] = assay: Cell viability after 72 hours treatment; type: cell-based; conditions: MDA-MB-231 (TNBC)
Description: (§2) The effects on the different treatment conditions on BUB 1 levels and PARP cleavage were also assessed. For both MNA-MB-231 cells, Compound 1 alone or with HCQ or SBI decreased BUB1 levels and cleaved PARP with […] decreases in cell viability observed for all treatments except Compound 1+SBI in MMA-MB-231 cells. The effects of Compound 1 with or without autophagy inhibitors was less pronounced in HCC-1937 cells.

MDA-MB-468 = assay: Cell viability after 72 hours treatment; type: cell-based; conditions: MDA-MB-468 (TNBC)
Description: as §2

HCC-1937 [4] = assay: Cell viability after 72 hours treatment; type: cell-based; conditions: HCC-1937 (TNBC)
Description: as §2

TBK1 = biological target: T1, TBK1 (Homo sapiens, UniProt Q9UHD2); assay: CETSA-MS, MDA-MB-231 cell lysates; type: binding; conditions: 2 μM and 20 μM
T1 construct: endogenous in cells; host or cells: MDA-MB-231
T1 sequence (Q9UHD2 whole entry): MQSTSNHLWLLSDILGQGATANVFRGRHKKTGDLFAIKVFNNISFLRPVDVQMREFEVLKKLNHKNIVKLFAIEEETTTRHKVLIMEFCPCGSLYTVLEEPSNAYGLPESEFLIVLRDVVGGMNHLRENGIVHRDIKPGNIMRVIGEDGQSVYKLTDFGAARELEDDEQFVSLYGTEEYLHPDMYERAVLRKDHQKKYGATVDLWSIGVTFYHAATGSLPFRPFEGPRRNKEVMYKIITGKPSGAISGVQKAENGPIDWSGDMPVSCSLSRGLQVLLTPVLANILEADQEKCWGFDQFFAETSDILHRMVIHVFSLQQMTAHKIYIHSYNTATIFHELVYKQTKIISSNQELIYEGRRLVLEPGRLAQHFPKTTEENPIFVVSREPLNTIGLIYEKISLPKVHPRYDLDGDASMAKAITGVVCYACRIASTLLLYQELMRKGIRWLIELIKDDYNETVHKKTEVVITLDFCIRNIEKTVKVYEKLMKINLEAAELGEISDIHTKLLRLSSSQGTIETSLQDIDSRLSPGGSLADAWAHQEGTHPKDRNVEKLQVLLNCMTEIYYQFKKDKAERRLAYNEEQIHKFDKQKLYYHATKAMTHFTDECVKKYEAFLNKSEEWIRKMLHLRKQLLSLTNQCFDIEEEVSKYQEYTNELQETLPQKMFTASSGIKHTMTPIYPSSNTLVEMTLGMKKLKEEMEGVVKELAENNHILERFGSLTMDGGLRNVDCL
Description: (§3) Following treatment, cell lysates were thermally treated in a thermal gradient profile across a temperature range. Following the thermal shift, cell lysates were spun by centrifuge to pellet aggregate protein and the supernatant withdrawn. The supernatant was then denatured in buffer and heated to denature, reduce, and alkylate the supernatant proteins. Following heating and cooling to room temperature, cold acetone was added to the supernatant samples and proteins precipitated.
(§4) The intact cell protein samples and lysate protein samples were then digested and labeled for mass spectrometry analysis according to the manufacturer's recommended protocols. Digested and labeled protein samples were analyzed by mass spectrometry proteomic analysis and the resulting protein targets were analyzed and plotted.

SLK = biological target: T2, SLK (Homo sapiens, UniProt Q9H2G2); assay: CETSA-MS, MDA-MB-231 cell lysates; type: binding; conditions: 2 μM and 20 μM
T2 construct: endogenous in cells; host or cells: MDA-MB-231
Description: as §3, §4

TFEB = biological target: T3, TFEB (Homo sapiens, UniProt P19484); assay: CETSA-MS, MDA-MB-231 cell lysates; type: binding; conditions: 2 μM and 20 μM
T3 construct: endogenous in cells; host or cells: MDA-MB-231
T3 sequence (P19484 whole entry): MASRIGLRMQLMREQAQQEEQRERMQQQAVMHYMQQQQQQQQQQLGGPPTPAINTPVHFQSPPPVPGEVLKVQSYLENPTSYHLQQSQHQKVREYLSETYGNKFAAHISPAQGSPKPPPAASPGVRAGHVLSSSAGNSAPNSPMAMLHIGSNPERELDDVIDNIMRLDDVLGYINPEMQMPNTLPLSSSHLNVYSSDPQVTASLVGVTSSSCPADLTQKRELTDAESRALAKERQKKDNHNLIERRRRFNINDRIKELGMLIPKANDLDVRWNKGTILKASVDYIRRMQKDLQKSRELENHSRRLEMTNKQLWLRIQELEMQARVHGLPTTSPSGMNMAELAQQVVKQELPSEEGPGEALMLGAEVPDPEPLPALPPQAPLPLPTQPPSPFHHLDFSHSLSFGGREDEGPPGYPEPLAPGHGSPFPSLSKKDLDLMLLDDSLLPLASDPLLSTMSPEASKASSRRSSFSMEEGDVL
Description: as §3, §4

STK17B = biological target: T4, STK17B (Homo sapiens, UniProt O94768); assay: CETSA-MS, MDA-MB-231 cell lysates; type: binding; conditions: 2 μM and 20 μM
T4 construct: endogenous in cells; host or cells: MDA-MB-231
T4 sequence (O94768 whole entry): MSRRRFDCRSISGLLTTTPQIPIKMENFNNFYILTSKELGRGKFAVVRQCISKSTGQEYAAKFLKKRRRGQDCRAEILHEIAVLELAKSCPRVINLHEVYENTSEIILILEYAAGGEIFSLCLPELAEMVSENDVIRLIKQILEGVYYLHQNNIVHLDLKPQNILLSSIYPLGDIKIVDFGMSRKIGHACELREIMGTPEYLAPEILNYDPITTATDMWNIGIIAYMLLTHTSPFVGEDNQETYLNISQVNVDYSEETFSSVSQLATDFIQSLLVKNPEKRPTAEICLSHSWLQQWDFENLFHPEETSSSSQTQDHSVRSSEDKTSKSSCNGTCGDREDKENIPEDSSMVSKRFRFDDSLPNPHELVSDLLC
Description: as §3, §4

FKBP8 = biological target: T5, FKBP8 (Homo sapiens, UniProt Q14318); assay: CETSA-MS, MDA-MB-231 cell lysates; type: binding; conditions: 2 μM and 20 μM
T5 construct: endogenous in cells; host or cells: MDA-MB-231
T5 sequence (Q14318 whole entry): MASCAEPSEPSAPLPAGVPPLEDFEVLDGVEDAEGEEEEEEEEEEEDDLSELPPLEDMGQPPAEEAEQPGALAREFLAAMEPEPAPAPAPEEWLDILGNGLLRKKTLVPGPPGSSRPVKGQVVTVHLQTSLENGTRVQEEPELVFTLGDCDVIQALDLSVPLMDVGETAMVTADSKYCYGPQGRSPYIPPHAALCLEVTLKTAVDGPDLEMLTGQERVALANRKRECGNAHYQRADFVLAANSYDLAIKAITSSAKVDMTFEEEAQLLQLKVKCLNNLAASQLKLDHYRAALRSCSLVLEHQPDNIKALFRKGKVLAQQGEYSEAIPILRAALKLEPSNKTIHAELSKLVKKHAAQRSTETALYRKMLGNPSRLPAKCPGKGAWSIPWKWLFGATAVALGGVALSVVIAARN
Description: as §3, §4

ATAT1 = biological target: T6, ATAT1 (Homo sapiens, UniProt Q5SQI0); assay: CETSA-MS, MDA-MB-231 cell lysates; type: binding; conditions: 2 μM and 20 μM
T6 construct: endogenous in cells; host or cells: MDA-MB-231
T6 sequence (Q5SQI0 whole entry): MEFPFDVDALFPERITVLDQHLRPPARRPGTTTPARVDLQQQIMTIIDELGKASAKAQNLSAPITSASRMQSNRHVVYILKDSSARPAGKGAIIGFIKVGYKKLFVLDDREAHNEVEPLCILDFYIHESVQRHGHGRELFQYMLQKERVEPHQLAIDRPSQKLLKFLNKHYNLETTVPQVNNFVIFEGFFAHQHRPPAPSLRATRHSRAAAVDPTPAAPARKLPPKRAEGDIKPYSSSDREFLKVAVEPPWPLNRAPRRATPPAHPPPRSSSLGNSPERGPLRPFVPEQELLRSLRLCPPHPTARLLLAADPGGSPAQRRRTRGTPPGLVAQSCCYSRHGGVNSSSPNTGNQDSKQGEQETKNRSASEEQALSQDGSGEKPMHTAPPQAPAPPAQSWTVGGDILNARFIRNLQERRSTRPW
Description: as §3, §4

USF2 = biological target: T7, USF2 (Homo sapiens, UniProt Q15853); assay: CETSA-MS, MDA-MB-231 cell lysates; type: binding; conditions: 2 μM and 20 μM
T7 construct: endogenous in cells; host or cells: MDA-MB-231
T7 sequence (Q15853 whole entry): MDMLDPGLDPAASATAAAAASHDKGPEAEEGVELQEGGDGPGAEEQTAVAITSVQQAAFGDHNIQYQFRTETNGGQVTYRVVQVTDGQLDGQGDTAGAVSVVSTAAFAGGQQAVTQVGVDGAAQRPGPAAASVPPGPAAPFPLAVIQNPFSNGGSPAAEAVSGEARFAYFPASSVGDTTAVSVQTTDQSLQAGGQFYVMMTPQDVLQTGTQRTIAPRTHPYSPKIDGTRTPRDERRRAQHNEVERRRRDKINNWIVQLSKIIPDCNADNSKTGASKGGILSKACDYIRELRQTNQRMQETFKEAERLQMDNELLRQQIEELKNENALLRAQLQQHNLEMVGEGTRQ
Description: as §3, §4

GSK3A = biological target: T8, GSK3A (Homo sapiens, UniProt P49840); assay: CETSA-MS, MDA-MB-231 cell lysates; type: binding; conditions: 2 μM and 20 μM
T8 construct: endogenous in cells; host or cells: MDA-MB-231
T8 sequence (P49840 whole entry): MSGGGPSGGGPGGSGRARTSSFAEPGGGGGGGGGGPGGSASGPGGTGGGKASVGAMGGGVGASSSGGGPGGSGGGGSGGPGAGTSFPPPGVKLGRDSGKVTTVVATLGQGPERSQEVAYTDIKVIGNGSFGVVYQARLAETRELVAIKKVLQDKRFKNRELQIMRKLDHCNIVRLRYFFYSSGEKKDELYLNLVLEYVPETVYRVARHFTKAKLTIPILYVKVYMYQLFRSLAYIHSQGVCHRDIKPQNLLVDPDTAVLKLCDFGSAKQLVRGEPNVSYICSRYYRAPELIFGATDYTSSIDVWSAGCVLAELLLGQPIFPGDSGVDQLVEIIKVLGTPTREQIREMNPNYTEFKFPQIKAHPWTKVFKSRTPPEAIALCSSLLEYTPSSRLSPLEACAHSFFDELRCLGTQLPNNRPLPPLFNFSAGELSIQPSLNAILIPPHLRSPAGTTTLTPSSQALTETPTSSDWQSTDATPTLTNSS
Description: as §3, §4

AURKA = biological target: T9, AURKA (Homo sapiens, UniProt O14965); assay: CETSA-MS, MDA-MB-231 cell lysates; type: binding; conditions: 2 μM and 20 μM
T9 construct: endogenous in cells; host or cells: MDA-MB-231
T9 sequence (O14965 whole entry): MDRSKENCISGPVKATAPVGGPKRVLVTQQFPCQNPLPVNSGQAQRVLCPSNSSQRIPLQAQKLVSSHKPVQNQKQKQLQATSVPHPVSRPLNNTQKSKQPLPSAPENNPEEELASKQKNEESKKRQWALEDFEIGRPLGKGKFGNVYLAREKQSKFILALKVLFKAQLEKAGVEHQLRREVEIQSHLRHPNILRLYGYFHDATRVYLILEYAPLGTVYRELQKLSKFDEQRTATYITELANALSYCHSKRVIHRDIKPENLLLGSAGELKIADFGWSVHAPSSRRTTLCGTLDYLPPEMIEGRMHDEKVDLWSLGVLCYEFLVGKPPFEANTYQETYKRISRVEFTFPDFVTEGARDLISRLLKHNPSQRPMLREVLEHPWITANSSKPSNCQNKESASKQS
Description: as §3, §4

DGCR6 = biological target: T10, DGCR6 (Homo sapiens, UniProt Q14129); assay: CETSA-MS, MDA-MB-231 cell lysates; type: binding; conditions: 2 μM and 20 μM
T10 construct: endogenous in cells; host or cells: MDA-MB-231
T10 sequence (Q14129 whole entry): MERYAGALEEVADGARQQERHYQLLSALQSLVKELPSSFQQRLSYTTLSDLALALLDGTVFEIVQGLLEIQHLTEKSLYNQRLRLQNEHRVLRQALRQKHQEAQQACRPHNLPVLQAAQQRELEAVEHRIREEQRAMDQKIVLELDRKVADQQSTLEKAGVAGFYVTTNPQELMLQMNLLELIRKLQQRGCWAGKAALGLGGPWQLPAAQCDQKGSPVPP
Description: as §3, §4

PyMT cells = assay: Senescence-associated β-galactosidase staining, 48 hours; type: cell-based, mouse; conditions: compared to DMSO
Description: Following 48 hours of treatment, cells were stained for the senescence marker β-galactosidase.

pRb = assay: Western blot after 2 h treatment, MDA-MB-231; type: cell-based; conditions: 5 μM, relative to DMSO control
Description: (§5) Following treatment, a sample of each of the three treatments was analyzed by Western Blot for expression of phosphoprotein targets.

pRb pSer807/811 = assay: Western blot after 2 h treatment, MDA-MB-231; type: cell-based; conditions: 5 μM, relative to DMSO control
Description: as §5

CDK4/cyclin D1 = CDK4/cyclin D1 (Homo sapiens, UniProt P11802); assay: CDK4/cyclin D1 In Vitro Kd, kinase binding assay (qPCR)
Chain of CDK4/cyclin D1 (P11802 whole entry): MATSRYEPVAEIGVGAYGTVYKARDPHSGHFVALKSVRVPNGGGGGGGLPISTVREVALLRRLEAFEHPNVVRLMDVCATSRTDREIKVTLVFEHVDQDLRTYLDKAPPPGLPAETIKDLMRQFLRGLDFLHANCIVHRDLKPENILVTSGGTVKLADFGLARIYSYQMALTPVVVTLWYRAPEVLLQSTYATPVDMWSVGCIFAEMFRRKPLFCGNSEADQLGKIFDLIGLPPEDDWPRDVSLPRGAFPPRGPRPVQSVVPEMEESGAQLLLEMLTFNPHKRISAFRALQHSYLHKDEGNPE
Chain of CDK4/cyclin D1 (P24385 whole entry partner): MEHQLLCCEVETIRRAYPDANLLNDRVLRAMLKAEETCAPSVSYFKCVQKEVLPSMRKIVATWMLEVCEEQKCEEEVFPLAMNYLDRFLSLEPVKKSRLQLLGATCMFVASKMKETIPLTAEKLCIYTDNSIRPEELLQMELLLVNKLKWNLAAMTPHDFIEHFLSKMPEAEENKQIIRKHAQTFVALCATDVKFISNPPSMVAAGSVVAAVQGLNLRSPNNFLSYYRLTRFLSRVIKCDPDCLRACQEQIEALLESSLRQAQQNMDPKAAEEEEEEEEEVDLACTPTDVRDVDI
Description: Kinase-tagged T7 phage strains were prepared in an E. coli host derived from the BL21 strain. E. coli were grown to log-phase and infected with T7 phage and incubated with shaking at 32° C. until lysis. […] The remaining kinases were produced in HEK-293 cells and subsequently tagged with DNA for qPCR detection. […] The liganded beads were blocked with excess biotin and washed with blocking buffer (SeaBlock (Pierce), 1% BSA, 0.05% Tween 20, 1 mM DTT) to remove unbound ligand and to reduce non-specific binding. […] Test compounds were prepared as 111× stocks in 100% DMSO. Kds were determined using an 11-point 3-fold compound dilution series with three DMSO control points. […] The compounds were then diluted directly into the assays such that the final concentration of DMSO was 0.9%. All reactions performed in polypropylene 384-well plate. Each was a final volume of 0.02 ml. […] The kinase concentration in the eluates was measured by qPCR. […] Curves were fitted using a non-linear least square fit with the Levenberg-Marquardt algorithm.

MDA-MB-231 cells = assay: CytoTox-Glo cytotoxicity assay with or without bafilomycin A1, 2 days; type: cell-based; conditions: 5 μM

## CN1CCN(c2ccc(Nc3ncc4cc(C#N)c(=O)n(C5CCCC5)c4n3)cc2)CC1 [Compound 1, 8-cyclopentyl-2-((4-(4-methylpiperazin-1-yl)phenyl)amino)-7-oxo-7,8-dihydropyrido[2,3-d]pyrimidine-6-carbonitrile]
T-47D
  cytotoxicity at 5 µM: 60%
MDA-MB-231 [1]
  cytotoxicity at 5 µM: 60%
MDA-MB-453
  cytotoxicity at 5 µM: 50%
BT-474
  cytotoxicity at 5 µM: 50%
Hs578T
  cytotoxicity at 5 µM: 40%
HCC-1937 [2]
  cytotoxicity at 5 µM: 20%
Akt pSer473
  Akt pSer473 levels: decreasing
MDA-MB-231 [3]
  72 h-cell viability decrease: 75%
MDA-MB-468
  72 h-cell viability decrease: 80%
HCC-1937 [4]
  72 h-cell viability decrease: 25%
TBK1
  Group (CETSA-MS thermal shift): Destabilization
SLK
  Group (CETSA-MS thermal shift): Stabilization
TFEB
  Group (CETSA-MS thermal shift): Stabilization
STK17B
  Group (CETSA-MS thermal shift): Stabilization
FKBP8
  Group (CETSA-MS thermal shift): Stabilization
ATAT1
  Group (CETSA-MS thermal shift): Stabilization
USF2
  Group (CETSA-MS thermal shift): Stabilization
GSK3A
  Group (CETSA-MS thermal shift): Stabilization
AURKA
  Group (CETSA-MS thermal shift): Stabilization
DGCR6
  Group (CETSA-MS thermal shift): Destabilization
PyMT cells
  β-galactosidase staining (senescence): increased β-galactosidase staining
pRb
  pRb levels: decreased pRb levels
pRb pSer807/811
  phosphorylation of pRb at Ser807/811: decreased phosphorylation
CDK4/cyclin D1
  Kd: 0.18 nM
MDA-MB-231 cells
  cell death (Cell Tox Glo), compound alone: induced cell death
  effect of bafilomycin A1 cotreatment on cell death (Cell Tox Glo): enhanced
